ChEMBL document CHEMBL1201862, “PubChem BioAssay data set” (2004)
Active and inactive are the calls of the source.

Legend:
Cytochrome P450 2D6 = Cytochrome P450 2D6 (Homo sapiens, UniProt P10635);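 note: CYP2D6 member of a cytochrome P450 panel assay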
Cytochrome P450 2C9 = Cytochrome P450 2C9 (Homo sapiens, UniProt P11712)
[1] = biological target: Peroxisome proliferator-activated receptor gamma/Nuclear receptor coactivator 2 (Homo sapiens, UniProt P37231); assay: TR-FRET dose response biochemical High Throughput Screening assay for agonists of the steroid receptor coactivator 2 (SRC-2) recruitment by the peroxisome proliferator-activated receptor gamma (PPAR gamma): non-selective agonists. [Related pubchem assays: 1297, 1032 ]; assay type: functional
[2] = biological target: Peroxisome proliferator-activated receptor gamma/Nuclear receptor coactivator 3 (Homo sapiens, UniProt P37231); assay: TR-FRET dose response biochemical High Throughput Screening assay for agonists of the steroid receptor coactivator 3 (SRC-3) recruitment by the peroxisome proliferator-activated receptor gamma (PPAR gamma): non-selective agonists. [Related pubchem assays: 1301 (Confirmation screen.), 1048 (Primary screen.)]; assay type: functional
[3] = biological target: Peroxisome proliferator-activated receptor gamma/Nuclear receptor coactivator 1 (Homo sapiens, UniProt P37231); assay: TR-FRET dose response biochemical High Throughput Screening assay for agonists of the steroid receptor coactivator 1 (SRC-1) recruitment by the peroxisome proliferator-activated receptor gamma (PPAR gamma): non-selective agonists. [Related pubchem assays (depositor defined):AID1300, AID1808, AID504735, AID631]; assay type: protein assay
Sequence of Peroxisome proliferator-activated receptor gamma/Nuclear receptor coactivator 1 (P37231 whole entry): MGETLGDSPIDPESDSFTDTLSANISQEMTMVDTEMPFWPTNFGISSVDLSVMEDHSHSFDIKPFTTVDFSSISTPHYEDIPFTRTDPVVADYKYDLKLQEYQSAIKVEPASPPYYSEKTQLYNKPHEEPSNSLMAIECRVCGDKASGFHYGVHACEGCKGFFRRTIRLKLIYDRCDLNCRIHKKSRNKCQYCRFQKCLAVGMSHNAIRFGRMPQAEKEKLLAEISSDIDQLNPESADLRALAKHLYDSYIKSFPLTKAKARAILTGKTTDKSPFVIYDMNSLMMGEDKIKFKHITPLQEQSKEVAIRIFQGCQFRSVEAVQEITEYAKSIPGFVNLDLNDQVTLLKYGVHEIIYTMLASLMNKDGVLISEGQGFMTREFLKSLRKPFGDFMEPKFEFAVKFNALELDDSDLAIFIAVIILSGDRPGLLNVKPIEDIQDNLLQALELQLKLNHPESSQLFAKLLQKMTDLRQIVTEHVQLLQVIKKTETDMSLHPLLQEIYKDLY
Sequence of Peroxisome proliferator-activated receptor gamma/Nuclear receptor coactivator 1 (Q15788 whole entry, further chain): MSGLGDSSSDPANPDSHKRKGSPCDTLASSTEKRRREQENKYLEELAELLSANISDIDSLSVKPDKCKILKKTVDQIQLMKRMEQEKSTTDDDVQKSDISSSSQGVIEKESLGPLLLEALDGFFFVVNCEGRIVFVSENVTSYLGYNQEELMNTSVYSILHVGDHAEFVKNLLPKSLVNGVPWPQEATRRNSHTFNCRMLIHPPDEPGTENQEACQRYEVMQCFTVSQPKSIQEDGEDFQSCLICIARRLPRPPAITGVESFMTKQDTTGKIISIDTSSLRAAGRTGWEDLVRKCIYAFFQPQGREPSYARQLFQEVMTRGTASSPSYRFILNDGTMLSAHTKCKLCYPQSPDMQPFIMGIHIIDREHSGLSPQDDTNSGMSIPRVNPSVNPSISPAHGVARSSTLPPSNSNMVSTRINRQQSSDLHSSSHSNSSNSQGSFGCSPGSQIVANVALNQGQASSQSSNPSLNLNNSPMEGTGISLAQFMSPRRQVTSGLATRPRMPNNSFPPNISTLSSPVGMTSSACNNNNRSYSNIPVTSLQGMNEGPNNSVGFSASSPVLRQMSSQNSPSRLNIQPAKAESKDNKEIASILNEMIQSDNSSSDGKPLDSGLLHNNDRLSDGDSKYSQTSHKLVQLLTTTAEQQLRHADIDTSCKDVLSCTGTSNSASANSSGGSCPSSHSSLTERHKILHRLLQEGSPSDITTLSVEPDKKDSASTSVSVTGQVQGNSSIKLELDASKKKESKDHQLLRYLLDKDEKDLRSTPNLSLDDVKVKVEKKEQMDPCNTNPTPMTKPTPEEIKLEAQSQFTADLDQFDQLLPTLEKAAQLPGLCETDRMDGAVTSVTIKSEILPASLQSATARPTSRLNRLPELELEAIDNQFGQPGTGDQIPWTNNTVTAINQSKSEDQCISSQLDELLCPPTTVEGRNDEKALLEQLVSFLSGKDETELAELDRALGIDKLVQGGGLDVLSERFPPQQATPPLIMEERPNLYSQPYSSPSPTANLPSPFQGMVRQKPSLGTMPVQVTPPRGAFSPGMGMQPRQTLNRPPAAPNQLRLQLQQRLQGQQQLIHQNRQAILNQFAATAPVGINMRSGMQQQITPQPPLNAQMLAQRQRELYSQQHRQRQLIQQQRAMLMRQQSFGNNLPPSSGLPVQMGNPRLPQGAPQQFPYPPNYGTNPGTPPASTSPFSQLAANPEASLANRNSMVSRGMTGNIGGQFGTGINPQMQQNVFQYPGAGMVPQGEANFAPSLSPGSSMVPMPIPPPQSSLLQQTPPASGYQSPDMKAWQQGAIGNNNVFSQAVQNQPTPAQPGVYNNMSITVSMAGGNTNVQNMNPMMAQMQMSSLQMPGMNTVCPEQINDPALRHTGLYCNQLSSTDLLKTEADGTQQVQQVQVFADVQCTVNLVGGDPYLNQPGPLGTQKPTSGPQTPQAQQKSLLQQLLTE

[4] = biological target: T1, High affinity choline transporter 1 (Homo sapiens, UniProt Q9GZV3); assay: human choline transporter blockers, potency – cell-based, 5-point CRC, membrane potential dye, dose response (AID 504840); assay type: functional
T1 sequence (Q9GZV3 whole entry): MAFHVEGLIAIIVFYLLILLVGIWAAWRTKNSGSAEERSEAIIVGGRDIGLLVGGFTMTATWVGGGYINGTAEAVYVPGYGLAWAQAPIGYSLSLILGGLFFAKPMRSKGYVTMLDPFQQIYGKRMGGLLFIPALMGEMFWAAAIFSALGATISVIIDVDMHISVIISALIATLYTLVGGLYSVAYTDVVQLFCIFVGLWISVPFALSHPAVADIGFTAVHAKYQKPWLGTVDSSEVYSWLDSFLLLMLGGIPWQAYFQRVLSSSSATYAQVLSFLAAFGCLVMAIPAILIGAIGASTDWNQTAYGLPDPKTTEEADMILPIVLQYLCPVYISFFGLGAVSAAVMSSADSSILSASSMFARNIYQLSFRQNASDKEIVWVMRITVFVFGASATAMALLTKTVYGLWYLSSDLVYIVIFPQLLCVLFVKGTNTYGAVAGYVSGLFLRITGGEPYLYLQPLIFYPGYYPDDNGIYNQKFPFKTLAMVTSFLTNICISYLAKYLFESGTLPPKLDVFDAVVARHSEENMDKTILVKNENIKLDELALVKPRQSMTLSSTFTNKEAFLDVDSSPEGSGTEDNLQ

[5] = Luminescence Cell-Based Dose Retest to Confirm Inhibitors of Cancer Stem Cells. [Related pubchem assays (depositor defined):AID2717, AID2721]; assay type: functional; conditions: Homo sapiens
[6] = luciferase reporter signal suppression in cells – H4 neuroglioma cells, luminescence, dose response (AID 1990); assay type: functional, cell-based
[7] = viability loss of HMLE_sh_eGFP cells – cell-based, luminescence, counter-screen for HMLE_sh_ECad selective toxicity project, dose response (AID 463074); assay type: functional, Homo sapiens;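 note: HMLE human mammary epithelial cells expressing control shRNA against eGFP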
[8] = alpha-synuclein stem-loop luciferase translation blockers – H4 neuroglioma cells, luminescence, confirmation (AID 1988); assay type: functional, cell-based
BJ [9] = assay: cells; assay type: functional, cell-based; conditions: Homo sapiens
[10] = HEK-293T viability loss after treatment – luminescence, T-cell screen hits, cytotoxicity control for TCR NF-kB inhibitor project, dose response (AID 489026); assay type: functional, cell-based;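 note: cells exposed to compound about 14 hours before the viability readout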
[11] = Luminescence Cell-Based Dose Response HTS to Identify Inhibitors of 5'UTR Stem-Loop Driven Prion Protein mRNA Translation in H4 Neuroglioblastoma Cells. [Related pubchem assays: 1827 (Project Summary), 1813 (Primary HTS)]; assay type: functional
BJ [12] = assay: BJ-TERT-LT-ST fibroblast viability loss – cell-based, RAS-independent, luminescence, dose response (AID 1935); assay type: functional; conditions: Homo sapiens;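 note: BJ fibroblasts immortalized with TERT plus LT and ST oncogenes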
BJ [13] = assay: BJ-TERT fibroblast viability loss – cell-based, RAS-independent, luminescence, dose response (AID 1933); assay type: functional; conditions: Homo sapiens
[14] = DRD fibroblast viability loss – cell-based, non-viral oncogenic, luminescence, dose response (AID 1934); assay type: functional; conditions: Homo sapiens
[15] = biological target: T2, Carboxy-terminal domain RNA polymerase II polypeptide A small phosphatase 1 (Homo sapiens, UniProt Q9GZU7); assay: CTDSP1 inhibitors, concentration-response, biochemical, absorbance readout, ultra-high-throughput screen actives (AID 540297); assay type: functional
T2 sequence (Q9GZU7 whole entry): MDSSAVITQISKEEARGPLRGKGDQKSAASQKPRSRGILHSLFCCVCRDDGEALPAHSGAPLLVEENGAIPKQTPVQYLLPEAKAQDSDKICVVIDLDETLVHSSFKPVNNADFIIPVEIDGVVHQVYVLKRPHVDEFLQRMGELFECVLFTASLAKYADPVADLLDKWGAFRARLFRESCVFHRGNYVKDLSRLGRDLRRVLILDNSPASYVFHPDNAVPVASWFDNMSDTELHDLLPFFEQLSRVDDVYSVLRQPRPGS

Cytochrome P450 3A4 [16] = biological target: T3, Cytochrome P450 3A4 (Homo sapiens, UniProt P08684);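 note: CYP3A4 tested as one member of a cytochrome P450 panel screen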
T3 sequence (P08684 whole entry): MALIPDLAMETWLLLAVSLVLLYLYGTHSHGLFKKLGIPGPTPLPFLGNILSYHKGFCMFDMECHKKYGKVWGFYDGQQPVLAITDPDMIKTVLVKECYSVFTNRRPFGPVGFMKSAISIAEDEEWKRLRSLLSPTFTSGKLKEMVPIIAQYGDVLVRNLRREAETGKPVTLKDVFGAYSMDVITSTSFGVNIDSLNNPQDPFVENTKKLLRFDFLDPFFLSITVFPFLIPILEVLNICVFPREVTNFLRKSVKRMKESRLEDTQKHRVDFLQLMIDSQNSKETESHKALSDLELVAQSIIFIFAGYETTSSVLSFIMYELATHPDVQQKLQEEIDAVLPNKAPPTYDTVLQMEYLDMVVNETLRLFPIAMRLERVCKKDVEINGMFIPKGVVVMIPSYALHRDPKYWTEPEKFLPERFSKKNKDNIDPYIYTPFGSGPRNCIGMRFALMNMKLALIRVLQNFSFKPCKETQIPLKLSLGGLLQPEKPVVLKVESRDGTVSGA

Cytochrome P450 3A4 [17] = biological target: T3, Cytochrome P450 3A4; remark: listed apart in the source
Cytochrome P450 1A2 = biological target: T4, Cytochrome P450 1A2 (Homo sapiens, UniProt P05177);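 note: PubChem cytochrome P450 panel assay, CYP1A2 panel member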
T4 sequence (P05177 whole entry): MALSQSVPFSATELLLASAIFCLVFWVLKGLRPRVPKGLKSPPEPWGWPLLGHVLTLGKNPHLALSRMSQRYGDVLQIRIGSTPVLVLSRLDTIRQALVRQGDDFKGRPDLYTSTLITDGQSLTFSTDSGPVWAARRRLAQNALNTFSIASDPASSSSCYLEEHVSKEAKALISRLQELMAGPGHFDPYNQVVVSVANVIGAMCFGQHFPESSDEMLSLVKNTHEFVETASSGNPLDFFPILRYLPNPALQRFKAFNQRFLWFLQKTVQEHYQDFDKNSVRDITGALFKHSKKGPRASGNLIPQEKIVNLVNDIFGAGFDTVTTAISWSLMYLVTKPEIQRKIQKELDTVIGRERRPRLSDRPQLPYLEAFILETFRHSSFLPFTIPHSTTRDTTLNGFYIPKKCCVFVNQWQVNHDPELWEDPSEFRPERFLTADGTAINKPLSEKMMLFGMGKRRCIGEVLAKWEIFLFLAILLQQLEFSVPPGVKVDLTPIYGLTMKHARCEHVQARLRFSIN

[18] = biological target: T5, Heat shock factor protein 1 (Mus musculus, UniProt P38532); assay: enhancement of HSF1-driven luciferase signal – cell-based, NIH3T3, luminescence, dose retest, confirmation (AID 435004); assay type: functional;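 note: stress induced by proteasome inhibitor MG132 added 30 min after compound; luciferase reporter driven by HSF1 response element in NIH3T3 cells; actives raise luminescence as potentiators of the MG132 stress response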
T5 sequence (P38532 whole entry): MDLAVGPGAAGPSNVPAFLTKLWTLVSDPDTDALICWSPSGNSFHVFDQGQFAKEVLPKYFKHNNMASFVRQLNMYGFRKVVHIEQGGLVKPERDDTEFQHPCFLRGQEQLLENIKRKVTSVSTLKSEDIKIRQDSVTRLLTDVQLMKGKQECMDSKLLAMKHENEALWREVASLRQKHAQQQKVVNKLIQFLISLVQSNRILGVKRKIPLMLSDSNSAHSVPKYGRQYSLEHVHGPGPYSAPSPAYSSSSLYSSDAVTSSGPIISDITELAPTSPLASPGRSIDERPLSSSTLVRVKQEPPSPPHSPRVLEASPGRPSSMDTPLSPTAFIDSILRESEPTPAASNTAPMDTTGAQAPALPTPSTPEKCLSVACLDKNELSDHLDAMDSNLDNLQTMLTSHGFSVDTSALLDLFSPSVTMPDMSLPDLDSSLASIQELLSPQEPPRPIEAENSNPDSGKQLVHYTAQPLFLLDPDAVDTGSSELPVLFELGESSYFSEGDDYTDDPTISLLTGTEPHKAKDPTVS

Cytochrome P450 2C19 = Cytochrome P450 2C19 (Homo sapiens, UniProt P33261); assay: Cytochrome panel assay with activity outcomes. Panel member name: p450-cyp2c19 Compounds with AC50 equal or less than 10 uM are considered active; assay type: functional
Sequence of Cytochrome P450 2C19 (P33261 whole entry): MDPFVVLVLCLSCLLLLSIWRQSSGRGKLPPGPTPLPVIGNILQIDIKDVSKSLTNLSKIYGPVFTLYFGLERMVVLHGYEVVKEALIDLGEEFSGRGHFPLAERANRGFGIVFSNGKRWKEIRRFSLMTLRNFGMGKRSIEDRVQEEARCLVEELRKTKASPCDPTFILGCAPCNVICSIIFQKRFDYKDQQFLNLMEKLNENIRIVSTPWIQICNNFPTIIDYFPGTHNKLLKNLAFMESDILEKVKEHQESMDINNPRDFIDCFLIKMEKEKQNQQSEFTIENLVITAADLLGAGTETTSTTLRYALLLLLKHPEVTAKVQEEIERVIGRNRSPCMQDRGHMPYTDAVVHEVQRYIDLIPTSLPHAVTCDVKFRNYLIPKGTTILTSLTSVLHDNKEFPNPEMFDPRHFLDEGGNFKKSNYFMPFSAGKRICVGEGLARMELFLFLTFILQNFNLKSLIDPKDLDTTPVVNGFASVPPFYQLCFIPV

[19] = viability of uninfected HEp-2 cells – cell-based, HTS, cytotoxicity control for RSV inhibitor project, dose response (AID 2410); assay type: functional; conditions: human respiratory syncytial virus
[20] = activation of miR-122 Renilla sensor silencing – cell-based, Huh7 psiCHECK-miR122, Renilla luciferase, cherry-picked, dose response (AID 651956); assay type: functional;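 note: huh7 hepatoma cells stably carrying a psiCHECK-2 miR-122 sensor plasmid; renilla luciferase signal reporting endogenous miR-122 activity after 48 h compound exposure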
HEK293 [21] = assay: NOD2 signaling inhibitors in MDP-stimulated cells, cell-based, uHTS, luminescence (AID 2001); assay type: functional; conditions: Homo sapiens
HEK293 [22] = assay: inhibition of NOD1-driven NF-kB reporter – cell-based, luminescence, uHTS, primary screen (AID 1578); assay type: functional; conditions: Homo sapiens
HEK293 [23] = assay: cells; assay type: functional, cell-based; conditions: Homo sapiens
HEK293 [24] = assay: cells; assay type: functional, cell-based; conditions: Homo sapiens; remark: listed apart in the source
[25] = Luminescence Cell-Based Dose Confirmation HTS to Identify Activators of 5'UTR Stem-Loop Driven Alpha-Synuclein mRNA Translation in H4 Neuroglioblastoma Cells. [Related pubchem assays: 1829 (Project Summary), 1814 (Primary HTS)]; assay type: functional
H4 = assay: Luminescence Cell-Based Dose Response HTS to Identify Activators of 5'UTR Stem-Loop Driven Prion Protein mRNA Translation in H4 Neuroglioblastoma Cells. [Related pubchem assays: 1829 (Project Summary), 1814 (Primary HTS)]; assay type: functional; conditions: Homo sapiens
[26] = Luminescence Cell-Based Dose Response HTS to Identify Activators of Luciferase Translation or Activity in H4 […] Cells. [Related pubchem assays: 1829 (Project Summary), 1814 (Primary HTS)]; assay type: functional

Sequence of Cytochrome P450 2C9 (P11712 whole entry): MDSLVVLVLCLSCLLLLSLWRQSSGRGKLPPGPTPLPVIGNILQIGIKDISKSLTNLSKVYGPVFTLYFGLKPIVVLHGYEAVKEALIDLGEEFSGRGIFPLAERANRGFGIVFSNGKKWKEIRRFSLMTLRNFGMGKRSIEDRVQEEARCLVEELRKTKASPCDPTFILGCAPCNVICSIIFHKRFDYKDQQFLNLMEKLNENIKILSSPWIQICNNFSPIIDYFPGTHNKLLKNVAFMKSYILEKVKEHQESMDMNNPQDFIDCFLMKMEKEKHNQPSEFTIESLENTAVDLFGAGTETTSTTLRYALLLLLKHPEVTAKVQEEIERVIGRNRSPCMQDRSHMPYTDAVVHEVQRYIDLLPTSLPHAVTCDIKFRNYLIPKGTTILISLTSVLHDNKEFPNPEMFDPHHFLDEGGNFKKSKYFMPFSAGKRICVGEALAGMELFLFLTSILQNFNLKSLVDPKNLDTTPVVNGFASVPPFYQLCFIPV
Sequence of Cytochrome P450 2D6 (P10635 whole entry): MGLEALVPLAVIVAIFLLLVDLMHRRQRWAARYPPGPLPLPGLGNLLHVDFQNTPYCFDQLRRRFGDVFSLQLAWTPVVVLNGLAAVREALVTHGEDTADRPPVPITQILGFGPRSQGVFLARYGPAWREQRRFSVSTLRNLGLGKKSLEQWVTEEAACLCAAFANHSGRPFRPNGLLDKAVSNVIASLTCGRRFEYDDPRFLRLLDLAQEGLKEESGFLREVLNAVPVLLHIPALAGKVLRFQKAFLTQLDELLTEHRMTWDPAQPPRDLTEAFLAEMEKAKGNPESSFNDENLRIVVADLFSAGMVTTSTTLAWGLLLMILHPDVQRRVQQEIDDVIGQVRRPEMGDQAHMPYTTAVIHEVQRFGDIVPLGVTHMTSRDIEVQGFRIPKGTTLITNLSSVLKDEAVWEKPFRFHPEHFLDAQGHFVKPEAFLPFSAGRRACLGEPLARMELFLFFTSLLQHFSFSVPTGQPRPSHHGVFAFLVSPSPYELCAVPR

O=[As](O)(O)c1ccc(NCc2ccccc2)cc1
AC50 (Cytochrome P450 2D6): inconclusive

CC(=O)NCCNc1nc(-c2ccccc2C)nc2ccccc12
AC50 (Cytochrome P450 2C9): inconclusive

COc1ccc(-c2nc(-c3cccs3)c(-c3cccs3)[nH]2)cc1O
EC50 [1]: 4.79 µM (active)
EC50 [2]: 79.6 µM (not active)
EC50 [3]: 4.8 µM (active)
IC50 [4]: 20 µM (active)

Cc1ccc(NS(=O)(=O)c2ccc(-c3cnc(C4CC4)o3)cc2)c(C)c1
AC50 [5]: < 0.16 µM (active)
EC50 [6]: 4.97 µM (inconclusive)
AC50 [7]: 5.23 µM (inconclusive)
EC50 [8]: 0.502 µM (active)
EC50 (BJ [9]): 0.985 µM (active)
IC50 [10]: 51.2 µM (inactive)
EC50 [11]: 3.3 µM (active)
EC50 (BJ [12]): 0.847 µM (inconclusive)
EC50 (BJ [13]): 1.2 µM (active)
EC50 [14]: 18.9 µM (inconclusive)

O=C(NNC(=O)c1cc2cc3ccccc3nc2s1)c1cccc(C(F)(F)F)c1
IC50 [15]: 5.86 µM (active)
AC50 (Cytochrome P450 3A4 [16]): 1.26 µM (inconclusive)
AC50 (Cytochrome P450 2C9): inconclusive

CCn1c(SCC(=O)N2CCN(c3ccc(F)cc3)CC2)nc2ccccc2c1=O
AC50 [5]: 20.1 µM (active)
AC50 [7]: 58.9 µM (active)

COc1ccc2c(=O)c(-c3ccccc3C)c(C)oc2c1
AC50 (Cytochrome P450 2D6): inconclusive
AC50 (Cytochrome P450 3A4 [17]): inconclusive
AC50 (Cytochrome P450 1A2): 31.6 µM (inconclusive)

CCOC(=O)N1CCC(NS(=O)(=O)c2ccc3c(c2)C(C)(C)C(=O)N3C)CC1
EC50 [18]: > 260 µM (inactive)
AC50 (Cytochrome P450 3A4 [16]): 15.8 µM (inconclusive)
AC50 (Cytochrome P450 2C9): inconclusive
AC50 (Cytochrome P450 2C19; read-out: AC50): 11.2 µM (inconclusive)

COc1ccc(-c2c(C)nn3c(N)c(-c4ccccc4)cnc23)cc1OC
AC50 [5]: 11.9 µM (active)
AC50 [7]: 34.8 µM (active)
CC50 [19]: 43.3 µM (active)
AC50 [20]: 6.96 µM (active)

Cc1ccc(C)c(-n2nc3c4c(ccc3c2O)C(=O)c2ccccc2C4=O)c1
IC50 (HEK293 [21]): 18 µM (inactive)
EC50 (HEK293 [22]): 11.1 µM (active)
IC50 (HEK293 [23]): > 20 µM (inactive)
IC50 (HEK293 [24]): > 20 µM (inactive)

COc1ccc(CCNc2cc(C)nc3c(-c4ccc(Cl)cc4)cnn23)cc1OC
AC50 [5]: 4.77 µM (active)
AC50 [7]: 24.1 µM (active)

Cc1ccc(C(=O)c2cnc3cc4c(cc3c2S(=O)(=O)c2ccccc2)OCCO4)cc1
EC50 [25]: 6.76 µM (active)
EC50 (H4): 7.93 µM (active)
IC50 (HEK293 [21]): 12.9 µM (inactive)
EC50 (HEK293 [22]): > 20 µM (inactive)
IC50 (HEK293 [23]): 14.7 µM (active)
IC50 (HEK293 [24]): > 20 µM (inactive)
EC50 [26]: 9.9 µM (active)

CN(C)Cc1c[nH]c2ncnc(O)c12
AC50 (Cytochrome P450 2D6): inconclusive

Cc1noc(C)c1-c1cc(NC2CCNCC2)ncn1
AC50 (Cytochrome P450 2C9): inconclusive
AC50 (Cytochrome P450 3A4 [17]): inconclusive
AC50 (Cytochrome P450 2C19): inconclusive
AC50 (Cytochrome P450 1A2): 0.126 µM (inconclusive)
